The source made the active and inactive calls.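 The calls were made as follows: active = plate Z score at or below -3, or inhibition of at least 30% at 20 µM; inactive = the rest.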
Assay: compounds lowering EGFP fluorescence in F442A cells, dose response, counter-screen for p/CIP destabilizer project (AID 2005);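 also: cells express EGFP alone from a CMV promoter as a counter screen for p/CIP-EGFP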
Settings: F442A EGFP cells, EGFP fluorescence, 16 h, stronger effect = higher value

Row | Compound | inhibition (EGFP decrease, at 10 µM) [%] | inhibition (at 20 µM)
1 | COc1ccc(CNC(=O)C(c2ccc(C)o2)N(Cc2cccs2)C(=O)Cc2cccs2)cc1 (configuration not stated) | 33.3 | 25.5% (inactive)
2 | CCC(Cc1ccccc1)NC(=O)Cn1cccc1C(=O)c1ccccc1 (configuration not stated) | 9.1 | 15.9% (inactive)
3 | C=CCC(NCc1ccco1)c1ccc(OC)cc1OC (configuration not stated) | 22.1 | -5.4% (inactive)
4 | CCn1cnc2cc(NCc3cccc(OC)c3O)ccc21 | 16.7 | 10.7% (inactive)
5 | CC(=O)Nc1ccc(SCC(=O)Nc2ccccc2Oc2ccccc2)cc1 | 21.8 | 14.4% (inactive)
6 | Cc1cccc(-c2nnc3n2N=C(c2ccccc2Br)CS3)c1 | 18.2 | 10.8% (inactive)
7 | Cc1ccccc1Cn1c(C)nc2ccccc21 | 29.8 | 39%
8 | COc1cc(CNCCCO)ccc1OCC(=O)NC(C)(C)C | -2.3 | 22.9% (inactive)
9 | O=C(c1cc(-c2ccccc2)on1)N1CCN(C(=O)c2ccco2)CC1 | 18.5 | 4.9% (inactive)
10 | Cc1ccc(Cn2c(SCC(C)C)nc3c2c(=O)[nH]c(=O)n3C)cc1 | 6.3 | 20.7% (inactive)
11 | CCOC(=O)C(C)On1c(-c2ccccc2)nc2ccc([N+](=O)[O-])cc21 (configuration not stated) | 5.1 | 25% (inactive)
12 | CC1CC(C)CN(c2ccc(NS(=O)(=O)c3ccccc3)cc2C(=O)O)C1 (configuration not stated) | 9.8 | 2.9% (inactive)
13 | N#C/C(=C\c1cccnc1)C(=O)Nc1ccccc1[N+](=O)[O-] | 27.7 | 2% (inactive)
14 | CCn1c(SCC(=O)Nc2nc3ccc(C)cc3s2)nc2c(c1=O)SC(C)C2 (configuration not stated) | 36.6 | 44.7%
15 | c1ccc(-c2cn3c(n2)CCc2ccc4cccnc4c2-3)cc1 | -17.2 | -5% (inactive)
16 | Cc1cc(N2C(=O)C(O)=C(C(=O)c3ccco3)C2c2ccc([N+](=O)[O-])cc2)no1 (configuration not stated) | 39.5 | 4.5% (inactive)
17 | c1ccc2c3nnc4n(c-3nc2c1)CCCS4 | 17.5 | 23.7% (inactive)
18 | O=S(=O)(NCC1CCCO1)c1cccc(C(F)(F)F)c1 (configuration not stated) | 7.7 | 11.7% (inactive)
19 | CCCNC(=O)c1ccc2c(=O)c(O)c(-c3cccc(Br)c3)[nH]c2c1 | -14.1 | -14.4% (inactive)
20 | CCOC(=O)c1ccc(COC(=O)c2nonc2N)cc1 | 4.5 | 21.1% (inactive)
21 | COc1ccc(C(NC(=O)CC(C)C)c2c(O)ccc3ccccc23)cc1 (configuration not stated) | 18.1 | 5.2% (inactive)
22 | CC(=O)N/C(=C/c1ccc2c(c1)OCO2)C(=O)NCCCO | 1.2 | 2% (inactive)
23 | CCOC(=O)c1oc2ccccc2c1N | 12.3 | 19.4% (inactive)
24 | COc1ccc(CNC2CCCCC2)cc1 | 26 | 20.4% (inactive)
25 | NC(=O)c1cccn(Cc2ccc(C(F)(F)F)cc2)c1=O | 6.5 | 5.4% (inactive)
26 | O=C(NCCc1cccc(F)c1)C1CCCN(c2nc3ccccc3s2)C1 (configuration not stated) | 16.8 | 0.4% (inactive)

Row | Compound | inhibition (EGFP decrease, at 10 µM) [%] | inhibition (at 20 µM)
27 | CC(C)C(=O)Nc1nnc(SCC(=O)NCc2cccs2)s1 | 11.1 | 12% (inactive)
28 | CCN1CCN(CCNC(=O)Nc2ccc([N+](=O)[O-])cc2)CC1 | -0.7 | 6.6% (inactive)
29 | Cc1c(NC(=O)C(C)OC(=O)/C=C/c2ccco2)c(=O)n(-c2ccccc2)n1C (configuration not stated) | 10.9 | -5.3% (inactive)
30 | O=C(CSc1ccc(Cl)cc1)OCc1nnc(-c2ccccc2)o1 | 7.2 | 13.1% (inactive)
31 | Cc1ccc(S(=O)(=O)Nc2cc(C(C)C)c(O)cc2C)cc1 | -16.2 | -4.5% (inactive)
32 | Nc1cc(=O)[nH]c(SCC(=O)Nc2cccnc2Cl)n1 | 18.4 | -7.6% (inactive)
33 | CCN1CCN(Cc2ccc(NC(=O)c3cc(NC(=O)C4=NN(c5ccccc5)C(=O)C4)cc(OC)c3)cc2C(F)(F)F)CC1 | 37.6 | 24.2% (inactive)
34 | Cc1cccc(C)c1OCc1cc(C(=O)N2CCCC2c2nonc2C)no1 (configuration not stated) | 17.2 | 11.5% (inactive)
35 | Cc1ccc(S(=O)(=O)CCC(=O)OCC(=O)c2c[nH]c3ccccc23)cc1 | 10.1 | 19.8% (inactive)
36 | NC(=O)C1CCCCc2c1[nH]c1ccc(Cl)cc21 (configuration not stated) | 16.2 | 7.6% (inactive)
37 | Cn1c(SCc2ccc(C#N)cc2)nnc1-c1ccccc1 | 18.5 | -12.9% (inactive)
38 | CCOc1ccc(NC(=O)CSc2nc3ccccc3c(=O)n2CCNC(C)=O)cc1 | 13.6 | 15% (inactive)
39 | CSCCC(CO)NC(=O)OCc1ccccc1 (configuration not stated) | 10.8 | -23.3% (inactive)
40 | O=C(CCCOc1ccccc1)Nc1nncs1 | -15.9 | 22.7% (inactive)
41 | O=C(OCC(=O)N1CCC(Cc2ccccc2)CC1)c1ccccc1 | -1.5 | -16% (inactive)
42 | Cn1cc(/C=C(\C(=O)O)C(C(=O)O)=C2CCCCC2)c2ccccc21 | 13.9 | 17.2% (inactive)
43 | COc1cc(Cl)c(C)cc1NC(=O)CSc1ccc(NC(C)=O)cc1 | 20.2 | 10.2% (inactive)
44 | CCOc1ccc(CC(=O)Nc2ccc(S(=O)(=O)Nc3cc(C)on3)cc2)cc1OCC | 7.6 | 10.1% (inactive)
45 | N/C(Cc1ccc([N+](=O)[O-])cc1)=N\OC(=O)COc1ccc2ccccc2c1 | 7 | -7.4% (inactive)
46 | CCc1ccc(NC(=S)N2CCC(NC(=O)c3ccccc3OC)CC2)cc1 | -7.8 | 5.4% (inactive)
47 | Cn1c(NCc2ccco2)nc2c1c(=O)n(Cc1ccc(Cl)cc1)c(=O)n2C | 17.1 | 20.5% (inactive)
48 | N#Cc1cc(F)c(N2CCNCC2)cc1Cl | 13.5 | 6.7% (inactive)
49 | O[C@@H](CNC[C@H](O)c1ccccc1)c1ccccc1 | 28 | -10.9% (inactive)
50 | CC(=O)Nc1cc2c(cc1C(=O)c1ccc(C)cc1)OCCO2 | 16 | -7.7% (inactive)
51 | CCc1cc2c(=O)c(-c3cscn3)coc2cc1O | -1.7 | -28% (inactive)
52 | CC(=O)c1ccc2c(c1)OCO2 | 5.1 | 25.1% (inactive)

Row | Compound | inhibition (EGFP decrease, at 10 µM) [%] | inhibition (at 20 µM)
53 | CCCCOc1ccc(/C(O)=C2/C(=O)C(=O)N(CCCOC)C2c2ccncc2)cc1 (configuration not stated) | 5.3 | -10.4% (inactive)
54 | Cc1ccc2nc(-c3ccc(S(=O)(=O)N4CCOCC4)cc3)cn2c1 | 14.7 | 6.1% (inactive)
55 | Cn1ncnc2c(=O)n(C)c(=O)nc1-2 | 49.3 | 61.7%
56 | CCOC(=O)CSC1=Nc2ccccc2C2=NC(CC(=O)NCc3ccc4c(c3)OCO4)C(=O)N12 (configuration not stated) | -26.1 | 3.9% (inactive)
57 | CCN(Cc1ccccc1)C(=O)C(=O)c1cn(CC(=O)N2CCCC2)c2ccccc12 | 19.4 | 28.2% (inactive)
58 | CC(C)CCN1C(=O)c2ccc(C(=O)NCC3CCCO3)cc2C1=O (configuration not stated) | 8.4 | 3.8% (inactive)
59 | Cc1ccc(NC(=O)CC2C(=O)NC3CCCCC3N2C(=O)c2ccc(F)cc2)cc1C (configuration not stated) | 12.9 | 24.7% (inactive)
60 | Cn1c(C(=O)NCc2cccnc2)cc2sc(Cl)cc21 | 28.8 | 32.9%
61 | CCCCN(CCCC)CCCNC(=O)C12CN(Cc3ccccc3)CC1C(c1cccc([N+](=O)[O-])c1)=NO2 (configuration not stated) | 20.1 | -9.9% (inactive)
62 | COc1cccc(CN2CC(C(=O)N(C)Cc3nc(C)cs3)CCC2=O)c1 (configuration not stated) | -5.9 | 16.2% (inactive)
63 | Cc1c(NC(=O)CSc2ncccn2)c(=O)n(-c2ccccc2)n1C | 15.5 | 17.7% (inactive)
64 | CCN1CCN(Cc2ccc(NC(=O)c3cc(NC(=O)c4cncc(-c5ccc(C#N)cc5)c4)cc(OC)c3)cc2C(F)(F)F)CC1 | 3 | 11.7% (inactive)
65 | Cc1ccc(NC(=O)N2CCCC2C(=O)NCc2ccc3c(c2)OCO3)cc1 (configuration not stated) | -10.4 | -0.3% (inactive)
66 | Cc1nnc(NC(=O)CSc2nccn2Cc2ccc(F)cc2)s1 | 22.4 | 16.3% (inactive)
67 | C[C@H]1CC[C@@H]2[C@@H](C)[C@H]3[C@H](C[C@H]4[C@@H]5CC=C6C[C@@H](O[C@@H]7O[C@H](CO)[C@H](O)[C@H](O[C@@H]8O[C@H](CO)[C@@H](O)[C@H](O)[C@H]8O)[C@H]7O[C@@H]7O[C@@H](C)[C@H](O)[C@@H](O)[C@H]7O)CC[C@]6(C)[C@H]5CC[C@]34C)N2C1 | 30.3 | -3% (inactive)
68 | CCC(CC)NC(=O)COC(=O)CCC(=O)c1ccc(Cl)cc1 | 5.2 | 24.9% (inactive)
69 | Cc1nc(NC(=O)CN2CCN(c3ccccc3F)CC2)sc1C(=O)N(C)C | 17 | 24.4% (inactive)
70 | CC(=O)Nc1cn(C(C)=O)c(C)n1 | 5.9 | 33.7%
71 | O=C(Nc1ccc(N2CCOCC2)c(Cl)c1)c1ccc(-n2cnnc2)cc1 | 15.2 | 4.8% (inactive)
72 | CCOc1ccc(NC(=O)/C(=C\c2ccc(OC(C)=O)c(OC)c2)NC(C)=O)cc1 | 1.3 | -16.6% (inactive)
73 | CCCC(=O)Nn1cnc2c(c1=O)C1(CCCCC1)Cc1ccccc1-2 | -8.7 | 4% (inactive)
74 | Cc1cc(C)cc(N2C(=O)N(c3ccccc3C)C3CS(=O)(=O)CC32)c1 (configuration not stated) | 9.1 | 28.7% (inactive)
75 | N/C(=N\OC(=O)c1ccc(Cl)cc1Cl)c1ccccc1 | 10.4 | 1.3% (inactive)
76 | CC(C)CN(C(=O)c1cccc(F)c1)c1c(N)n(CC(C)C)c(=O)[nH]c1=O | 32.3 | 18.5% (inactive)

Reference: PubChem BioAssay AID2005 (Sanford-Burnham Center for Chemical Genomics, 2009)
